Measurements from PMC11477482 (Molecules, 2024).
Entries after “also recorded” stand apart in the source; their conditions may differ.

Tests used:
[1] = test system: RAW264.7 cells (mitochondrial O2− production); test: Mitochondrial antioxidant activity (MitoSOX, rotenone-induced superoxide); type: cell-based, mouse; details: 500 μM; for mitochondrial antioxidant activity: rotenone 20 μM
Method: The human keratinocytes (HaCaT, CLS 300493, Eppelheim, Germany) cell line was cultured with Dulbecco’s Modified Eagle’s Medium (DMEM) (Sigma-Aldrich, St. Louis, MO, USA), supplemented with 10% (v/v) of heat-inactivated fetal bovine serum (FBS), 1% (v/v) antibiotic solution (from a 10,000 U/mL penicillin and 10,000 μg/mL streptomycin stock) (Gibco, Carlsbad, CA, USA), 3.7 g/L sodium bicarbonate, and 1 mM sodium pyruvate (Sigma-Aldrich, St. Louis, MO, USA). The cell culture of keratinocytes was detached with EDTA solution 1X (Sigma-Aldrich, St. Louis, MO, USA) when the cells reached 70–80% confluence in cell culture flasks. The mouse macrophage cell line (RAW 264.7, ATCC TIB-71, Manassas, VA, USA) was cultured in DMEM supplemented with 10% (v/v) non-inactivated FBS, 1% (v/v) antibiotic solution, 1.5 g/L sodium bicarbonate, and 1 mM sodium pyruvate. Macrophages were mechanically detached with a cell scraper and subcultured in (1:10) proportion of cellular suspension to a final volume of DMEM. The human monocytic cell line THP-1 (ATCC® TIB-202™, American Type Culture Collection, Manassas, VA, USA) was cultivated in RPMI 1640 supplemented with 10% inactivated FBS, 25 mM (D)-glucose, 10 mM HEPES, 1 mM sodium pyruvate, 100 U/mL penicillin, and 100 μg/mL streptomycin, and maintained at a cell density of 0.4 × 10^6 cells/mL. Cells were subcultured every 2 or 3 days and maintained in culture for 2–3 months, according to ATCC® instructions.
Mitochondrial superoxide (O2^−) generation was determined using the MitoSOX Red kit, according to the manufacturer’s instructions. Briefly, 5.0 × 10^5 cells/mL were plated in a 12-well plate and incubated for 24 h at 37 °C. The cells were then exposed to the AA, AAG and AAGS solution (500 µM), and after 1 h, rotenone (20 μM) was added, followed by incubation for an additional 5 h. The cells were then carefully detached, transferred to microtubes, and centrifuged at 500× g for 3 min. The cell pellet was washed with HBSS solution (2 × 1 mL), resuspended in PBS solution, and 300 µL was collected in two microtubes for unstained (150 µL) and stained (150 µL) conditions. The stained cells were incubated with 100 μL of freshly prepared MitoSOX solution 2.5 µM at 37 °C for 15 min in the dark. The stained cells were washed with HBSS solution (2 × 1 mL), and the cell pellet was resuspended in 100 μL of PBS and analyzed by flow cytometry using a BD Accuri™ C6 cytometer (San Jose, CA, USA).
CD86 and CD54 levels were analyzed by flow cytometry using the acquisition channels FL1 and FL4. Mitochondrial O2^− production was measured by flow cytometry using the acquisition channel FL2. The relative fluorescence intensity (RFI) of CD86 and CD54 (THP-1 maturation assay) and MitoSOX (mitochondrial antioxidant activity) in the control and chemical-treated cells, based on the geometric mean fluorescence intensity (MFI), was calculated according to the following equation: RFI=MFI of chemical treated cells−MFI of chemical treated unstained cells/MFI of control treated cells−MFI of control unstained cells ×100

[2] = Photostability under UVA + UVB radiation; type: physicochemical; details: for variation in absorbance after irradiation: UVA + UVB, up to 15 min
Method: Three independent compound solutions (100 µM) were prepared and exposed to light. A volume of 50 mL of each sample replicate was exposed side-by-side under a UV lamp at a […] distance through an appropriate duration of time. These conditions were monitored using calibrated radiometers. The lamp used as light source for the photostability assay emitted an irradiance of 0.62 mW/cm^2 and 0.74 mW/cm^2 of UVA and UVB light, respectively. A UV lamp (Osram, Ultra-Vitalux, 300 W) was positioned at a height of 54 cm. The UV lamp was turned on 1 h before the experiment, and the UVA and UVB irradiances were measured, maintaining the controlled temperature. At the end of the exposure period, the absorbance spectrum was measured between 200 nm and 800 nm using a UV–vis spectrophotometer. The exposed samples were analyzed concomitantly with protected samples (dark controls). Photostability was evaluated by comparing the UV–vis spectra at each evaluation time for each antioxidant.

[3] = DSC thermal analysis and compatibility with excipients; type: physicochemical; details: for compatibility with Carbopol 980 (CP) / compatibility with EDTA / compatibility with hydroxyethylcellulose (HEC) / compatibility with miglyol 812 (MIG) / compatibility with stearyl alcohol (SA) / compatibility with tocopherol (TP): 1:1 (w/w) mixture; for Tonset / Tpeak / ΔH: compound alone, 10 °C/min, nitrogen
Method: A differential scanning calorimeter (DSC) 200F3 Maia (Netzsh-Gerätebau GmbH, Selb, Germany) was used for thermal analysis of the ingredients and mixtures. Typical excipients of topical formulations with different functions were selected for this study. The physical mixtures between compounds and the excipients were prepared in a ratio of 1:1 (w/w). Individual samples and the physical mixtures were weighed directly in the pierced DSC aluminum pan and scanned in the temperature range of 20–400 °C under nitrogen atmosphere with flow of 40 mL/min, with a heating rate of 10 °C/min. An empty aluminum pan was used as reference. The onset temperature and melting enthalpy (ΔH) were calculated using Proteus Analysis software (Version 6.1, NETZSCH-Gerätebau GmbH, Germany). The DSC cell was calibrated (sensitivity and temperature calibration) with Hg (m.p. −38.8 °C), In (m.p. 156.6 °C), Sn (m.p. 231.9 °C), Bi (m.p. 271.4 °C), Zn (m.p. 419.5 °C), and CsCl (m.p. 476.0 °C) as standards.

[4] = DPPH radical scavenging assay; details: ethanol, 15 min in the dark, 517 nm; ± SD
Method: Stock solutions of each compound (100 µM) and DPPH solution (150 µM) were prepared in ethanol. Different concentrations of antioxidant solutions (0.1–50 µM) were prepared to test their antioxidant effect. In a 96-well plate, 100 µL of DPPH working solution was added to a 100 µL sample solution and incubated at room temperature for 15 min in the dark. The absorbance of each sample was measured at 517 nm, in a microplate reader. For the negative control, 100 μL ethanol was added instead of the antioxidant solution. Rutin was used as the positive control. Inhibition curves were constructed, and the half maximal effective concentration (EC50) values were calculated for all samples by linear regression for the three independent assays performed.

Structure (SMILES) | pro-oxidant profile [1] | increase of absorbance (hyperchromic effect) ([2]; after 5 min of UV exposure (UVA + UVB)) | compatibility with Carbopol 980 (CP) [3] | compatibility with EDTA [3] | Tonset [3] | Tpeak [3] | ΔH [3] | EC50 [4] | mitochondrial antioxidant activity [1] | variation in absorbance after irradiation [2] | compatibility with hydroxyethylcellulose (HEC) [3] | compatibility with miglyol 812 (MIG) [3] | compatibility with stearyl alcohol (SA) [3] | compatibility with tocopherol (TP) [3]
O=C1O[C@H]([C@@H](O)CO)C(O)=C1O [AA, Ascorbic acid] | AA, AAG, and AAGS with no pro-oxidant profile % inhibition of rotenone-induced SO2^− production: AA > AAG > AAGS | ~50% | Weak interferences | Weak interferences | 192.9 °C | 197.1 °C | -328.6 J/g | 1.54 ± 0.21 µM |  |  |  |  |  | 
O=C1O[C@H]([C@@H](O)CO)C(O)=C1O[C@H]1O[C@H](CO)[C@@H](O)[C@H](O)[C@H]1O [AAG, 2-O-α-D-glucopyranosyl-L-ascorbic acid] | AA, AAG, and AAGS with no pro-oxidant profile % inhibition of rotenone-induced SO2^− production: AA > AAG > AAGS |  |  | more compatible | 173.0 °C | 176.4 °C | -139.8 J/g | 9.15 ± 0.13 µM | did not demonstrate an ability to exert antioxidant activity in mitochondria | slight variation in the absorbance | Weak interferences | more compatible | Weak interferences | more compatible
O=C1OC(C(COS(=O)(=O)O)OS(=O)(=O)O)C(OS(=O)(=O)O)=C1OC1OC(COS(=O)(=O)O)C(OS(=O)(=O)O)C(OS(=O)(=O)O)C1OS(=O)(=O)O [AAGS, 2-O-α-D-glucopyranosyl-L-ascorbic acid persulfate] | non-prooxidant; also recorded: AA, AAG, and AAGS with no pro-oxidant profile % inhibition of rotenone-induced SO2^− production: AA > AAG > AAGS |  | Weak interferences |  | 195.0 °C | 200.5 °C | 223.1 J/g | 5.28 ± 0.36 µM | did not demonstrate an ability to exert antioxidant activity in mitochondria | practically imperceptible | more compatible; also recorded: favorable compatibility | more compatible | Weak interferences | more compatible
